Test results from PubChem BioAssay (NCI).
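Compound exposure: 48 hours, 5 concentrations, 96-well plates. Abbreviation: GI50, concentration required for 50% inhibition of growth. TGI is the concentration that stops growth completely.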

Legend:
Experiment in all cases: inhibition of tumour cell growth, NCI panel, 48 h
[1] = test system: SK-MEL-2 melanoma
[2] = test system: SK-OV-3 ovarian
[3] = test system: OVCAR-4 ovarian
[4] = test system: MOLT-4 leukemia
[5] = test system: MDA-MB-231 breast
[6] = test system: EKVX NSCLC
[7] = test system: NCI-H522 lung
[8] = test system: UACC-62 melanoma
[9] = test system: SK-MEL-28 melanoma
[10] = test system: HCC-2998 colon
[11] = test system: CAKI-1 renal
[12] = test system: KM12 colon
[13] = test system: SK-MEL-5 melanoma
[14] = test system: UO-31 renal
[15] = test system: OVCAR-3 ovarian
[16] = test system: U251 CNS
[17] = test system: M14 melanoma
[18] = test system: SNB-19 CNS
[19] = test system: SF-268 CNS
[20] = test system: HOP-62 NSCLC
[21] = test system: MCF7 breast
[22] = test system: COLO 205 colon
[23] = test system: IGROV1 ovarian
[24] = test system: PC-3 prostate
[25] = test system: CCRF-CEM leukemia
[26] = test system: HCT-15 colon
[27] = test system: T-47D breast
[28] = test system: BT-549 breast
[29] = test system: RXF 393 renal
[30] = test system: MDA-MB-435
[31] = test system: SW-620 colon
[32] = test system: HOP-92 NSCLC
[33] = test system: SN12C renal
[34] = test system: A498 renal
[35] = test system: SR leukemia
[36] = test system: RPMI-8226 leukemia
[37] = test system: LOX IMVI melanoma
[38] = test system: SF-539 CNS
[39] = test system: 786-0 renal
[40] = test system: NCI/ADR-RES ovarian
[41] = test system: K-562 leukemia
[42] = test system: SNB-75 CNS
[43] = test system: NCI-H23 lung
[44] = test system: DU-145 prostate
[45] = test system: MALME-3M melanoma
[46] = test system: A549 NSCLC
[47] = test system: NCI-H226 lung
[48] = test system: HS 578T breast
[49] = test system: OVCAR-5 ovarian
[50] = test system: SF-295 CNS
[51] = test system: ACHN renal
[52] = test system: NCI-H460 lung
[53] = test system: HT29 colon
[54] = test system: OVCAR-8 ovarian
[55] = test system: TK-10 renal
[56] = test system: UACC-257 melanoma
[57] = test system: HCT-116 colon
[58] = test system: HL-60(TB) leukemia

In the case of `COc1cc2nc(N3CCCN(C)CC3)nc(NC3CCN(Cc4ccccc4)CC3)c2cc1OC`, the GI50 [1] is reported as 2.08 µM, the TGI [1] is reported as 4.25 µM and the GI50 [2] is reported as 3.19 µM. It also gave a TGI [2] of 10.8 µM, a GI50 [3] of 1.81 µM and a TGI [3] of 4.79 µM. For the same molecule, the GI50 [4] was 1.8 µM, the TGI [4] was 6.25 µM and the GI50 [5] was 1.68 µM. The TGI [5] was 4.75 µM, the GI50 [6] was 3.83 µM and the TGI [6] was 13.9 µM. For the same molecule, the GI50 [7] was 2.02 µM, the TGI [7] was 4.22 µM and the GI50 [8] was 1.89 µM. The TGI [8] was 3.56 µM, the GI50 [9] was 1.88 µM and the TGI [9] was 3.77 µM. The GI50 [10] was 2.71 µM, the TGI [10] was 8.76 µM and the GI50 [11] was 1.63 µM. The TGI [11] was 3.71 µM, the GI50 [12] was 3.07 µM and the TGI [12] was 9.82 µM. For the same molecule, the GI50 [13] was 1.73 µM, the TGI [13] was 3.14 µM and the GI50 [14] was 1.69 µM. The TGI [14] was 3.2 µM, the GI50 [15] was 3.17 µM and the TGI [15] was 9.41 µM. For the same molecule, the GI50 [16] was 2.22 µM, the TGI [16] was 5.96 µM and the GI50 [17] was 1.76 µM. For the same molecule, the TGI [17] was 3.22 µM, the GI50 [18] was 4.28 µM and the TGI [18] was 18.1 µM. For the same molecule, the GI50 [19] was 2.72 µM, the TGI [19] was 8.65 µM and the GI50 [20] was 3.23 µM. The TGI [20] was 10.6 µM, the GI50 [21] was 2.08 µM and the TGI [21] was 7.65 µM. It also gave a GI50 [22] of 1.84 µM, a TGI [22] of 3.51 µM and a GI50 [23] of 7.33 µM. It also gave a TGI [23] of 25.3 µM, a GI50 [24] of 4.4 µM and a TGI [24] of 20.1 µM. For the same molecule, the GI50 [25] was 2.37 µM, the TGI [25] was > 24.6 µM and the GI50 [26] was 1.83 µM. For the same molecule, the TGI [26] was 4.41 µM, the GI50 [27] was 2.53 µM and the TGI [27] was 6.25 µM. The GI50 [28] was 1.94 µM, the TGI [28] was 4.68 µM and the GI50 [29] was 1.33 µM. For the same molecule, the TGI [29] was 3.12 µM, the GI50 [30] was 1.74 µM and the TGI [30] was 3.22 µM. The GI50 [31] was 2.96 µM, the TGI [31] was 9.64 µM and the GI50 [32] was 4.12 µM. The TGI [32] was 13.6 µM, the GI50 [33] was 6.68 µM and the TGI [33] was 25 µM. It also gave a GI50 [34] of 0.904 µM, a TGI [34] of 7.66 µM and a GI50 [35] of 2.23 µM. It also gave a TGI [35] of 6.66 µM, a GI50 [36] of 2.31 µM and a TGI [36] of 6.18 µM. The GI50 [37] was 1.68 µM, the TGI [37] was 3.28 µM and the GI50 [38] was 1.68 µM. It also gave a TGI [38] of 3.33 µM, a GI50 [39] of 1.84 µM and a TGI [39] of 5.2 µM. It also gave a GI50 [40] of 13.4 µM, a TGI [40] of 34.8 µM and a GI50 [41] of 1.47 µM. For the same molecule, the TGI [41] was 4.56 µM, the GI50 [42] was 1.4 µM and the TGI [42] was 4.55 µM. The GI50 [43] was 5.71 µM, the TGI [43] was 19.7 µM and the GI50 [44] was 2.86 µM. For the same molecule, the TGI [44] was 9.38 µM, the GI50 [45] was 1.87 µM and the TGI [45] was 3.37 µM. The GI50 [46] was 2.94 µM, the TGI [46] was 10.2 µM and the GI50 [47] was 2.68 µM. For the same molecule, the TGI [47] was 9.08 µM, the GI50 [48] was 2.04 µM and the TGI [48] was 5.59 µM. The GI50 [49] was 4.47 µM, the TGI [49] was 15.1 µM and the GI50 [50] was 1.81 µM. The TGI [50] was 3.46 µM, the GI50 [51] was 2.25 µM and the TGI [51] was 5.13 µM. It also gave a GI50 [52] of 2.19 µM, a TGI [52] of 4.81 µM and a GI50 [53] of 1.33 µM. It also gave a TGI [53] of 5.26 µM, a GI50 [54] of 3.26 µM and a TGI [54] of 11.8 µM. It also gave a GI50 [55] of 1.88 µM, a TGI [55] of 4.02 µM and a GI50 [56] of 1.74 µM. For the same molecule, the TGI [56] was 3.36 µM, the GI50 [57] was 2.24 µM and the TGI [57] was 6.19 µM. The GI50 [58] was 1.83 µM and the TGI [58] was 4.3 µM.
